Experimental data: patent publication US20230031954A1, “TETRACYCLINE COMPOUNDS AND METHODS OF TREATMENT” (Tetraphase Phamaceuticals, Inc., priority 2016, published 2023)

What was measured:
MOLT4 cell line = assay: Proliferation assay in MOLT4 cell line (CellTiterGlo, 72 hour); format: cell-based; conditions: Homo sapiens, MOLT-4, MOLT4 cells
Protocol: (§1) Compounds 1, 2, 3a, 4a and 5 as well as certain Compound included in FIGS. 15A-15M, 16A-16F and 17A-17D were tested in the following cell lines: MOLT4 and K562. Compounds 1, 2, 3a, 4a and 5 were also tested in the cell line HL60.
(§2) The MOLT4 cell line (CRL-1582™) and K562 cell line (CCL-243™) were obtained from American Type Culture Collection (ATCC). They were grown in a T-75 flask in RPMI Medium (GIBCO, Catalog No. 11875-093) containing 10% fetal bovine serum (ATCC, Catalog No. 30-2020) and penicillin-streptomycin (ATCC, Catalog No. 30-2300) at 37° C. in a humidified, 5% CO2 incubator. The HL60 cell line (CCL-240™) was obtained from American Type Culture Collection (ATCC). They were grown in a T-75 flask in DMEM Medium (GIBCO, Catalog No. 11965-092) containing 20% fetal bovine serum (ATCC, Catalog No. 30-2020) and penicillin-streptomycin (ATCC, Catalog No. 30-2300) at 37° C. in a humidified, 5% CO2 incubator.
(§3) 50 μL of cells (8,500 cells/well) were plated in a 96-well plate and incubated overnight at 37° C. in a humidified, 5% CO2 incubator. The next day, 50 μL of medium containing 3-fold serially diluted compounds in duplicate was added to the wells such that the starting concentration of the compound in the first pair of the wells was 10 μM. After 72 hour incubation with the compound, cell viability was measured in a luminometer after the addition of 100 μL/well CellTiterGlo reagent (Promega) as recommended by the manufacturer. The IC50 values for the compounds were calculated using SoftMax software.

THP-1 cells = assay: THP-1 anti-proliferation assay (Cell Titer GLO, 72 hr); format: cell-based; conditions: Homo sapiens
Protocol: The inhibition of eukaryotic cell culture growth was established using THP-1 cells (ATCC Cat. #TIB-202), a human acute monocytic leukemia cell line. These are suspension cells. This cell-based assay for eukaryotic culture growth inhibition was performed in 384-well plate format to determine the in vitro cytotoxicity of the test compounds.
Compounds were solubilized in water. Compounds were diluted 1:2 in assay media and 1:2 serial dilutions were performed in 50:50 media:water mix. The high dose was 40 μM, 10% water final. 5 μL of compound at 5× the final concentration was dispensed to the 384 assay plate. 20 μL of THP-1 cells were added.
Compounds were plated in dose response format (10% water final concentration), followed by the addition of cells. Cells were grown and incubated with compounds in RPMI-1640 medium/pen/strep/L-glutamine/10% FBS/2-mercaptoethanol for 72 hr at 37° C. with 5% CO2. At the end of the incubation time, cells were assayed for viability using Cell Titer GLO (Promega).

HL60 cell line = assay: Proliferation assay in HL60 cell line (CellTiterGlo, 72 hour); format: cell-based; conditions: Homo sapiens, HL-60, HL60 cells
Protocol: as §1, §2, §3

K562 cell line = assay: Proliferation assay in K562 cell line (CellTiterGlo, 72 hour); format: cell-based; conditions: Homo sapiens, K562 cells
Protocol: as §1, §2, §3

MV4-11 cell line = assay: MV4-11 anti-proliferation assay (CellTiterGlo, 72 hour); format: cell-based; conditions: Homo sapiens, MV4-11 cells
Protocol: MV4-11 cell line (MV-4-11, CRL-9591™) was obtained from American Type Culture Collection (ATCC). Cells were grown in a T-75 flask in RPMI Medium (GIBCO, Catalog No. 11875-093) containing 10% fetal bovine serum (ATCC, Catalog No. 30-2020) and penicillin-streptomycin (ATCC, Catalog No. 30-2300) at 37° C. in a humidified, 5% CO2 incubator.
as §3, with “(10,000” for “(8,500”

[1] = system: mitochondrial protein synthesis; assay: Intact isolated rat heart mitochondrial protein synthesis assay ([S35]-methionine incorporation); format: biochemical; conditions: isolated rat heart mitochondria, 0.15 to 40 μM; read-out: dose-response curve IC50, mitochondrial protein synthesis
Protocol: The effect of Compound 3a on mitochondrial protein synthesis was determined using an intact isolated rat heart mitochondrial protein synthesis assay previously described [See, 1, 2 below]. Intact, highly coupled mitochondria isolated from normal rat hearts were incubated in an incubation medium containing [S^35]-methionine. The compounds were diluted to generate a final dose-response curve from 0.15 to 40 μM. The rate of incorporation of [S^35]-methionine into protein was measured at 20, 40, and 60 minutes of incubation for each sample using a filter paper disc assay and expressed as pmol methionine incorporated per mg mitochondrial protein as described [1, 2, 3 below]. The time course data for control and all drug concentrations were nearly linear. The slope of each time-course data plot is calculated as the least squares best fit line through zero and the three time points for each sample. The rate of protein synthesis varies modestly with each mitochondrial preparation (mean and SEM=20.3+/−2.4 pm/mg protein). To normalize for this variability, the rates were expressed as a percent of the rate of the control line for each preparation of mitochondria.
Each experiment was repeated three times.
Dose-response curves were obtained by expressing the percent of control obtained for each concentration of Compound 3a against the concentration of Compound 3a. […]

[2] = system: subcutaneous MV4-11 leukemia model; assay: MV4-11 xenografts: in vivo anti-tumor efficacy in CB17 SCID mice; parameters: species or system mouse; conditions: for tumor response: dosed at maximum tolerated dose, cytarabine 100 mg/kg I.P. QD, tigecycline 50 mg/kg I.P. BID
Protocol: The in vivo anti-tumor efficacy of Compounds 3a, 4a and 5 in the subcutaneous MV4-11 leukemia model in CB17 SCID mice was tested.
The MV4-11 cells (ATCC-CRL-9591) were maintained in vitro as a suspension culture at a density of 0.2-1.5×10^6 cells/ml in RPMI1640 medium supplemented with 10% heat inactivated fetal bovine serum, 100 U/ml penicillin and 100 μg/ml streptomycin at 37° C. in an atmosphere of 5% CO2 in air. The tumor cells were routinely subcultured twice weekly. The cells growing in an exponential growth phase were harvested and counted for tumor inoculation.
CB17 SCID, female, 6-8 weeks, weighing approximately 18-22 g.
Each mouse was inoculated subcutaneously at the right flank with MV4-11 tumor cells (10×10^6) in 0.2 ml of PBS (with Matrigel 1:1) for tumor development. The animals were randomized and treatment was started when the average tumor volume reached approximately 150-200 mm^3 for the efficacy study. The test article administration and the animal numbers in each group are shown below.
The major endpoint monitored was tumor growth delay or cure. Tumor sizes were measured twice weekly in two dimensions using a caliper, and the volume expressed in mm^3 using the formula: V=0.5 a×b^2 where a and b are the long and short diameters of the tumor, respectively. The tumor sizes were then used for the calculations of both T-C and T/C values. T-C is calculated with T as the median time (in days) required for the treatment group tumors to reach a predetermined size (e.g., 1,000 mm^3), and C is the median time (in days) for the control group tumors to reach the same size. […]
TGI was calculated for each group using the formula: TGI (%)=[1−(Ti−T0)/(Vi−V0)]×100; Ti is the average tumor volume of a treatment group on a given day, T0 is the average tumor volume of the treatment group on the first day of treatment, Vi is the average tumor volume of the vehicle control group on the same day with Ti, and V0 is the average tumor volume of the vehicle group on the first day of treatment.

[3] = system: AML ex-vivo bone marrow samples; assay: Antiproliferative activity against 15 AML ex-vivo bone marrow samples (Vivia's Native Environment cell depletion assay); format: cell-based, human; conditions: 48 hours post drug exposure
Protocol: Antiproliferative activity of Compound 3a and cytarabine was measured against 15 AML ex-vivo bone marrow samples (including two cytarabine-resistant samples). The assay used was Vivia's Native Environment cell depletion assay. An outline of the study is below: • Five different concentrations of each drug was used as a monotherapy • The incubation time point for measurement was 48 hours post drug exposure The results are shown graphically in FIG. 6.

SMILES | IC50 (MOLT4 cell line) [µM] | IC50 (THP-1 cells) [µM] | IC50 (HL60 cell line) [µM] | IC50 (K562 cell line) [µM] | IC50 (MV4-11 cell line) [µM] | IC50 [1] [nM] | tumor shrinkage ([2]; all animals treated, 12.5 mg/kg I.P., dose 1 and dose 2 of Table 1C) [%] | ex vivo activity against the tumor cells from frozen bone marrow of the AML patients ([3]; monotherapy) | EC50 ([3]; Homo sapiens, 15 AML ex-vivo bone marrow samples) [nM] | tumor response [2]
CCN1CCC[C@H]1c1cc(O)c2c(c1OC)C[C@H]1C[C@H]3[C@H](N)C(O)=C(C(N)=O)C(=O)[C@@]3(O)C(O)=C1C2=O [Compound 3a] | 0.12 | 0.75 | 0.37 | 0.11 | 0.1 | 700 | ≥ 70 | potent ex vivo activity | 170 | 
Nc1ccn([C@@H]2O[C@H](CO)[C@@H](O)[C@@H]2O)c(=O)n1 [Cytarabine] |  |  |  |  |  |  |  |  |  | no tumor response
CN(C)c1cc(NC(=O)CNC(C)(C)C)c(O)c2c1C[C@H]1C[C@H]3[C@H](N(C)C)C(O)=C(C(N)=O)C(=O)[C@@]3(O)C(O)=C1C2=O [Tigecycline, tigecycline, reference compound] | 5.1 | 29.1 | 15.4 | 7.2 | 4.64 |  |  |  |  | no tumor response

The next lines start with results.

IC50 (MOLT4 cell line) [µM] | IC50 (THP-1 cells) [µM] | IC50 (HL60 cell line) [µM] | IC50 (K562 cell line) [µM] | IC50 (MV4-11 cell line) [µM] | IC50 [1] [nM] | SMILES | tumor shrinkage ([2]; all animals treated, 12.5 mg/kg I.P., dose 1 and dose 2 of Table 1C) [%] | ex vivo activity against the tumor cells from frozen bone marrow of the AML patients ([3]; monotherapy) | EC50 ([3]; Homo sapiens, 15 AML ex-vivo bone marrow samples) [nM] | tumor response [2]
0.13 | 0.9 | 0.41 | 0.13 | 0.13 |  | CCN[C@@H]1C(O)=C(C(N)=O)C(=O)[C@@]2(O)C(O)=C3C(=O)c4c(O)cc([C@@H]5CCCN5CC)c(OC)c4C[C@H]3C[C@@H]12 (single isomer, unassigned) [Compound 4a] |  |  |  | 
0.13 | 0.64 | 0.51 | 0.16 | 0.17 |  | NC(=O)C1=C(O)[C@@H](N)[C@@H]2C[C@@H]3Cc4c(F)cc(NC(=O)CN5CCCC5)c(O)c4C(=O)C3=C(O)[C@]2(O)C1=O [Compound 5] |  |  |  | 
